Patent US12383539B2 (Cavion, Inc., priority 2018, dated 2025)

Legend:
[1] = test system: patients with essential tremor; experiment: T-CALM: TETRAS activities of daily living subscale (TETRAS-ADL); type: in vivo, human; conditions: for TETRAS-ADL score (change from baseline), Mean (SD) / TETRAS-ADL score (change from baseline), Median / TETRAS-ADL score (change from baseline), Median (minimum, maximum): post-hoc
Text: The sum of the individual scores provides the overall score, ranging from 0 to 48. The complete TETRAS ADL Subscale is as follows.
Rate tremor's impact on activities of daily living (0-4 scoring).
• 0=Normal. • 1=Slight voice tremulousness, only when “nervous”. • 2=Mild voice tremor. All words easily understood. • 3=Moderate voice tremor. Some words difficult to understand. • 4=Severe voice tremor. Most words difficult to understand. 2. Feeding with a Spoon • 0=Normal. • 1=Slightly abnormal. […] Spills a little. • 3=Moderately abnormal. Spills a lot or changes strategy to complete task such as using two hands or leaning over. • 4=Severely abnormal. Cannot feed with a spoon. 3. Drinking from a Glass • 0=Normal. • 1=Slightly abnormal. […] Spills a little. • 3=Moderately abnormal. Spills a lot or changes strategy to complete task such as using two, hands or leaning over. • 4=Severely abnormal. Cannot drink from a glass or uses straw or sippy cup. 4. Hygiene • 0=Normal. • 1=Slightly abnormal. […] Some difficulty but can complete task. • 3=Moderately abnormal. Unable to do most fine tasks such as putting on lipstick or shaving unless changes strategy such as using two hands or using the less affected hand. 4=Severely abnormal. Cannot complete hygiene tasks independently. 5. Dressing • 0=Normal. • 1=Slightly abnormal. […] Able to do everything but has difficulty due to tremor. • 3=Moderately abnormal. Unable to do most dressing unless changes strategy such as using Velcro, buttoning shirt before putting it on or avoiding shoes with laces. • 4=Severely abnormal. Cannot dress independently. 6. Pouring • 0=Normal. • 1=Slightly abnormal. […] Must be very careful to avoid spilling but may spill occasionally. • 3=Moderately abnormal. Must use two hands or uses other strategies to avoid spilling. • 4=Severely abnormal. Cannot pour. 7. Carrying Food Trays, Plates or Similar Items • 0=Normal. • 1=Slightly abnormal. […] Must be very careful to avoid spilling items on food tray. • 3=Moderately abnormal. Uses strategies such as holding tightly against body to carry. • 4=Severely abnormal. Cannot carry food trays or similar items. 8. Using Keys • 0=Normal. • 1=Slightly abnormal. Tremor is present but can insert key with one hand without difficulty. • 2=Mildly abnormal. Commonly misses target but still routinely puts key in lock with one hand. • 3=Moderately abnormal. Needs to use two hands or other strategies to put key in lock. • 4=Severely abnormal. Cannot put key in lock. 9. Writing • 0=Normal. • 1=Slightly abnormal. […] Difficulty writing due to tremor. • 3=Moderately abnormal. Cannot write without using strategies such as holding the writing hand with the other hand, holding pen differently or using large pen. • 4=Severely abnormal. Cannot write. 10. Working. If Patient is Retired, Ask as if they were Still Working. If the Patient is a Housewife, Ask the Question as it Relates to Housework: • 0=Normal. • 1=Slightly abnormal. […] Tremor interferes with work; able to do everything, but with errors. • 3=Moderately abnormal. Unable to continue working without using strategies such as changing jobs or using special equipment. • 4=Severely abnormal. Cannot perform any job or household work. 11. Overall Disability with the Most Affect Task (Name Task, e.g. Using Computer Mouse, Writing, Etc.) • Task ______ • 0=Normal. • 1=Slightly abnormal. […] Tremor interferes with task but still able to perform task. • 3=Moderately abnormal. Can do task but must use strategies. • 4=Severely abnormal. Cannot do the task. 12.
Analyses of the TETRAS-ADL was conducted using the same type of ANCOVA model as described for the TETRAS-PS, using two-sided tests at the alpha=0.05 level of significance (FIG. 2 and Table 2).

[2] = test system: patients with essential tremor; experiment: T-CALM: Kinesia ONE accelerometry score; type: in vivo, human
Text: Kinesia One platform is deployed in T-CALM as a digital marker of tremor severity. Kinesia One is FDA cleared for monitoring Parkinson's motor symptom severity with only limited data on assessment of tremor in ET patients. The algorithmically derived score was developed primarily in Parkinson's disease algorithms and has limited validation in ET (see, e.g., Hoffman et al., 2011 Conf Proc IEEE Eng Med Biol Soc. 2011:4378-81). The Kinesia One device is placed on the index finger of each ET patient and worn in the clinic after completion of the TETRAS Performance subscale. Four tasks are performed by the patient on the left and right sides to assess resting, postural, kinetic and lateral wing beating tremor. The Kinesia One score change in score from baseline to day 28 is evaluated as a secondary efficacy endpoint. The Kinesia One data is also utilized for exploratory analysis of efficacy on the change from baseline to day 15 for accelerometry score and for change from baseline on amplitude measures for days 15 and 28. Consistent finger sensor placement and consistent task execution are critical factors for valid Kinesia One scores.
Both sets of scores were statistically analyzed.

[3] = patients Minimally Improved by CGI-I, Day 15
[4] = patients Minimally Improved by CGI-I, Day 28
[5] = patients Minimally Improved by PGIC, Day 15
[6] = patients Minimally Improved by PGIC, Day 28

Structure (SMILES): CC(C)c1ccc(CC(=O)N[C@H](C)c2ccc(OCC(F)(F)F)cn2)cc1 [CX-8998]
- responders: improvement of at least 5 points by TETRAS-ADL score, % ([1]; Day 15): (46.2%)
- responders: improvement of at least 5 points by TETRAS-ADL score, number ([1]; Day 15, N 39): 18
- TETRAS-ADL change from baseline 0 change: subjects, number (%) ([1]; Day 15, N = 39): 2 (5.1%)
- TETRAS-ADL change from baseline >0 to 1 point improvement: subjects, number (%) ([1]; Day 15, N = 39): 5 (12.8%)
- TETRAS-ADL change from baseline >0 to 1 point worsening: subjects, number (%) ([1]; Day 15, N = 39): 1 (2.6%)
- TETRAS-ADL change from baseline >1 to 2.5 point improvement: subjects, number (%) ([1]; Day 15, N = 39): 2 (5.1%)
- TETRAS-ADL change from baseline >1 to 2.5 point worsening: subjects, number (%) ([1]; Day 15, N = 39): 3 (7.7%)
- TETRAS-ADL change from baseline >2.5 to 5 point improvement: subjects, number (%) ([1]; Day 15, N = 39): 7 (17.9%)
- TETRAS-ADL change from baseline >2.5 to 5 point worsening: subjects, number (%) ([1]; Day 15, N = 39): 3 (7.7%)
- TETRAS-ADL change from baseline >5 to 10 point improvement: subjects, number (%) ([1]; Day 15, N = 39): 11 (28.2%)
- TETRAS-ADL change from baseline >5 to 10 point worsening: subjects, number (%) ([1]; Day 15, N = 39): 0
- TETRAS-ADL change from baseline >10 point improvement: subjects, number (%) ([1]; Day 15, N = 39): 5 (12.8%)
- TETRAS-ADL change from baseline >10 point worsening: subjects, number (%) ([1]; Day 15, N = 39): 0
- responders: improvement of at least 5 points by TETRAS-ADL score, % ([1]; Day 28): (29.7%)
- responders: improvement of at least 5 points by TETRAS-ADL score, number ([1]; Day 28, N 37): 11
- TETRAS-ADL change from baseline 0 change: subjects, number (%) ([1]; Day 28, N = 37): 5 (13.5%)
- TETRAS-ADL change from baseline >0 to 1 point improvement: subjects, number (%) ([1]; Day 28, N = 37): 2 (5.4%)
- TETRAS-ADL change from baseline >0 to 1 point worsening: subjects, number (%) ([1]; Day 28, N = 37): 3 (8.1%)
- TETRAS-ADL change from baseline >1 to 2.5 point improvement: subjects, number (%) ([1]; Day 28, N = 37): 3 (8.1%)
- TETRAS-ADL change from baseline >1 to 2.5 point worsening: subjects, number (%) ([1]; Day 28, N = 37): 3 (8.1%)
- TETRAS-ADL change from baseline >2.5 to 5 point improvement: subjects, number (%) ([1]; Day 28, N = 37): 7 (18.9%)
- TETRAS-ADL change from baseline >2.5 to 5 point worsening: subjects, number (%) ([1]; Day 28, N = 37): 3 (8.1%)
- TETRAS-ADL change from baseline >5 to 10 point improvement: subjects, number (%) ([1]; Day 28, N = 37): 6 (16.2)
- TETRAS-ADL change from baseline >5 to 10 point worsening: subjects, number (%) ([1]; Day 28, N = 37): 0
- TETRAS-ADL change from baseline >10 point improvement: subjects, number (%) ([1]; Day 28, N = 37): 5 (13.5%)
- TETRAS-ADL change from baseline >10 point worsening: subjects, number (%) ([1]; Day 28, N = 37): 0
- TETRAS-ADL score (change from baseline), Mean (SD) [1, 3]: −3.7 (4.21)
- TETRAS-ADL score (change from baseline), Median [1, 3]: −2.0
- TETRAS-ADL score (change from baseline), Mean (SD) [1, 4]: −4.4 (8.10)
- TETRAS-ADL score (change from baseline), Median (minimum, maximum) [1, 4]: −1.0 (−24, 3)
- TETRAS-ADL score (change from baseline), Mean (SD) [1, 5]: −3.3 (4.27)
- TETRAS-ADL score (change from baseline), Median [1, 5]: −4.0
- TETRAS-ADL score (change from baseline), Mean (SD) [1, 6]: −1.6 (3.84)
- TETRAS-ADL score (change from baseline), Median (minimum, maximum) [1, 6]: −1.0 (−7, 3)
- Kinesia ONE total score, Median ([2]; Day 15): 7.9
- Kinesia ONE total score, change from baseline, Median ([2]; Day 15): −1.1
- Kinesia ONE score vs placebo ([2]; Day 15 and Day 28): did not show a significant difference
- Kinesia ONE total score, Median ([2]; Day 28): 7.8
- Kinesia ONE total score, change from baseline, Median ([2]; Day 28): −0.7
